# Results: patent US9878054B2, “Polypeptide and lipophilic moiety conjugate compositions, formulations, and uses related thereto” (Tufts Medical Center, Inc., priority 2012, dated 2018)
# Where a SMILES comes first, the peptide text is derived from it. The star is where a group is joined. Palmitoyl = CCCCCCCCCCCCCCCC(=O)*
# Legend:
# [1] = system: guinea pig carotid artery thrombosis; experiment: Guinea pig carotid artery FeCl3 injury arterial thrombosis model; format: in vivo
# Protocol: A carotid artery FeCl3 injury model was used in guinea pigs to assess the anti-thrombotic efficacy of PZ-128 micelles within 15 min of initiation of drug administration. FeCl3 denudes the artery and exposes type I collagen and other subendothelial matrix proteins to initiate platelet-dependent thrombosis. Guinea pigs received 10 min intravenous infusions of PZ-128 micelles, 5 min prior to carotid artery injury. […] Mean occlusion times increased by 4-fold to 40 min at doses above 0.05 mg/kg PZ-128.
# Male Hartley guinea pigs (150˜220 g) were purchased from Charles River Laboratories. A 0.61 mm-diameter catheter was inserted into the left jugular vein of anesthetized animals for administration of infusions of 5% USP dextrose vehicle or PZ-128 micelles. A 0.5 V-Doppler probe (Transonic Systems, Ithaca, N.Y.) was placed around the right carotid artery to record blood flow. A range of doses of PZ-128 micelles from 0.05 to 1.6 mg/kg in 0.9 ml volumes were delivered at an injection rate of 0.09 ml/min by a Harvard syringe pump. Five minutes after the infusion ended, arterial thrombosis was induced by placing a 5×5 mm^2 piece of filter paper soaked in freshly made 20% FeCl3 solution on the right carotid artery 5 mm distal to the probe for 20 minutes. […] To examine possible synergistic effects of PZ-128 micelles and P2Y12-ADP receptor inhibition, 1 mg/kg clopidogrel was administered by oral gavage 4 hours prior to FeCl3 injury. In these synergy experiments, the maximum endpoint was set at 90 minutes for occlusion time.
# [2] = Pharmacokinetics of PZ-128 in baboon plasma (LC/MS/MS); format: in vivo
# Protocol: (§1) A-C, Male baboons (10-12 kg) were administered 1, 3 or 6 mg/kg PZ-128, or 5% dextrose USP vehicle by iv infusion and blood collected into 100 μg/ml PPACK anticoagulant at 0, 1, 2, 6, or 24 h time points. Light transmission platelet aggregometry was performed with platelet rich plasma with the indicated agonists (SFLLRN for PAR1, AYPGKF for PAR4 and ADP for P2Y12 and P2Y1). Data are reported as mean±SD (n=3-7) relative to time 0 controls (0%) and were analyzed by repeated measures one-way ANOVA with Bonferroni post-test correction; *P<0.05, **P<0.01 relative to time 0. Global P values were >0.05 for 1 mg/kg, 0.004 for 3 mg/kg, <0.0001 for 6 mg/kg. D, Pharmacokinetics of 3 and 6 mg/kg 45-min iv infusions of PZ-128 in male baboons. Plasma PZ-128 levels were measured by LC/MS/MS at 9 sequential time points: baseline, 15 min, 30 min, 1 h, 2 h, 4 h, 8 h, 24 h and 48 h after the start of infusion. Open symbols indicated plasma concentrations that were under the measurement threshold (5 ng/ml).
# The maximal plasma concentration of PZ-128 was 14 μmol/L at the 6 mg/kg dose and 5.6 μmol/L for the 3 mg/kg dose. […] The pharmacokinetic and anti-platelet pharmacodynamic properties of PZ-128 micelles indicate that this lipopeptide reaches maximal activity during and immediately after intravenous infusion and is completely eliminated by the next day.
# Various doses of PZ-128 micelles were infused intravenously for 45 min to baboons. At sequential time points, whole blood was drawn into 3.2% citrate buffer and immediately centrifuged at 3000 rpm for 10 min. Platelet-poor plasma (PPP) samples were harvested and stored at −80° C. PZ-128 drug levels in PPP samples were determined was using an API 4000 LC/MS/MS system (Agilux Laboratories, Worcester, Mass.).
# PAR4 = target: T1, PAR4 (Homo sapiens, UniProt Q96RI0); experiment: Human platelet aggregation, PAR4 agonist AYPGKF; format: cell-based; settings: human platelets; 200 μM AYPGKF
# T1 construct: Platelets were isolated from platelet rich plasma (PRP) using Sepharose 2B columns; endogenous in cells; host or cells: human platelets from healthy donors, gel-filtered
# T1 sequence (Q96RI0 18-385): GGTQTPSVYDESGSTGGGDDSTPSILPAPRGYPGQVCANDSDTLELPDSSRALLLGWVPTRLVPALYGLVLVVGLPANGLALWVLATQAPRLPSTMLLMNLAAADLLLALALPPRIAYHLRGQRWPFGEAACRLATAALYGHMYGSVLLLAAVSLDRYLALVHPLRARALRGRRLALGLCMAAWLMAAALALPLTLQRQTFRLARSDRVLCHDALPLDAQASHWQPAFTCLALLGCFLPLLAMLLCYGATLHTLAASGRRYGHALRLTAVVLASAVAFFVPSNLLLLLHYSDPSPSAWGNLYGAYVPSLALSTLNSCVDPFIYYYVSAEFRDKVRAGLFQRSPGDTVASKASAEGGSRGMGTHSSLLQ
# Protocol: A, Depiction of the mechanism of action of the cell-penetrating PZ-128 pepducin compound targeting the third intracellular loop (red) of PAR1. B, The NMR structure of PZ-128 was determined by simulated annealing methods using 210 distance restraints and included restraints to the proximal 3 hydrocarbons of the lipid. […] D, PZ-128 inhibits PAR1-dependent platelet aggregation. Gel filtered human platelets were treated with various concentrations of PZ-128 and then challenged with the PAR1 agonist SFLLRN (2.5 μM), 20 μM ADP, 200 μM AYPGKF or 1 mg/ml Ristocetin. E, Human platelets were treated with 3 μM PZ-128, 3 μM RWJ-56110, or 5% dextrose vehicle before the addition of various concentrations of thrombin (n=3-5).
# PZ-128 also markedly right-shifted thrombin-induced aggregation by 5-fold. By comparison, the small molecule RWJ-56110 which antagonizes PAR1 at the extracellular ligand-binding site gave a 2-fold right shift in the thrombin activation curve of human platelets.
# Whole blood from healthy donors was collected into a 30 ml syringe containing sodium citrate (0.4% vol/vol final). Platelets were isolated from platelet rich plasma (PRP) using Sepharose 2B columns in modified PIPES buffer.
# P2Y12 and P2Y1 = experiment: Baboon ex vivo platelet aggregation, ADP; format: in vivo; settings: any dose, any time point
# Protocol: as §1
# The anti-platelet effects of PZ-128 micelles were next examined in baboons at various time points after receiving different doses of intravenous infusions. […]
# Non-terminal thrombosis and platelet aggregation studies were performed on 12 healthy male baboons (Papio anubis) weighing 9-12 kg at the Oregon National Primate Research Center (ONPRC). […] Platelet counts and hematocrit were measured immediately. […]
structure (smiles),measurement,setting,value
"CCCCCCCCCCCCCCCC(=O)N[C@@H](CCCCN)C(=O)N[C@@H](CCCCN)C(=O)N[C@@H](CO)C(=O)N[C@@H](CCCNC(=N)N)C(=O)N[C@@H](C)C(=O)N[C@@H](CC(C)C)C(=O)N[C@@H](Cc1ccccc1)C(N)=O [PZ-128, palmitate-KKSRALF-NH2] (Palmitoyl-KKSRALF-NH2)","EC50, protection against arterial occlusion",[1]; 10 min iv infusion 5 min prior to FeCl3 carotid injury,0.075 mg/kg
same,Increase of mean occlusion time,[1]; doses above 0.05 mg/kg,4 fold
same,Mean occlusion time,[1]; doses above 0.05 mg/kg,40 min
same,Protection against arterial occlusion when used alone,[1]; sub-therapeutic dose alone (PZ-128 0.05 mg/kg; clopidogrel 1 mg/kg PO),non-significant protection
same,Plasma half life,[2]; 3 and 6 mg/kg iv infusion,50 to 80 min
same,Plasma level at late time points,"[2]; 24-48 h, measurement threshold 5 ng/ml",not detectable
same,Clearance from plasma,[2]; by 8 h,nearly completely cleared
same,half-life,"[2]; male, plasma, iv, 3 and 6 mg/kg iv infusion",50 to 81 min
same,Inhibitory activity against PAR4 (AYPGKF) aggregation,PAR4,no inhibitory activity
same,Inhibition of ADP response ex vivo,P2Y12 and P2Y1,no inhibition
